Test results: ChEMBL document CHEMBL1124876, “Organic phosphorus compounds. 5. (4-Benzothiazol-2-ylbenzyl)amidophosphonate as potent calcium antagonistic vasodilators” (J Med Chem, 1990)
Calls of active or inactive are those of the source. No cut-off for these calls is given here.

What was measured:
Canis familiaris [1] = assay: Coronary vasodilatory activity as increase in coronary flow was determined in dogs after 0.1 mg/kg i.v. administration of the compound; assay type: functional, Canis lupus familiaris; conditions: route intravenous
Canis familiaris [2] = assay: Coronary vasodilatory activity as increase in coronary flow was determined in dogs after 0.1 mg/kg i.v. administration of the compound; (SE +/- 12.9); assay type: functional, Canis lupus familiaris; conditions: route intravenous
Canis familiaris [3] = assay: Coronary vasodilatory activity as increase in coronary flow was determined in dogs after 0.1 mg/kg i.v. administration of the compound; (SE +/- 7.4); assay type: functional, Canis lupus familiaris; conditions: route intravenous
[4] = Partition coefficient (logP); assay type: physicochemical; conditions: octanol/water
Canis familiaris [5] = assay: Coronary vasodilatory activity as increase in coronary flow was determined in dogs after 0.1 mg/kg i.v. administration of the compound; (SE +/- 6.6); assay type: functional, Canis lupus familiaris; conditions: route intravenous
Canis familiaris [6] = assay: Coronary vasodilatory activity as increase in coronary blood flow was determined in dogs after i.v. administration of the compound; assay type: functional, Canis lupus familiaris, Artery
Canis familiaris [7] = assay: Coronary vasodilatory activity as increase in coronary flow was determined in dogs after 0.1 mg/kg i.v. administration of the compound; (SE +/- 27); assay type: functional, Canis lupus familiaris; conditions: route intravenous
[8] = Lethal effect after per os administration in mouse for 7 days; assay type: toxicity; conditions: in vivo, po
Canis familiaris [9] = assay: Ability to increase coronary blood flow after intra duodenal administration at 3 mg/kg in dog; (SE +/- 24); assay type: functional, Canis lupus familiaris; conditions: route intraduodenal
Canis familiaris [10] = assay: Coronary vasodilatory activity as increase in coronary flow was determined in dogs after 0.1 mg/kg i.v. administration of the compound; (SE +/- 9); assay type: functional, Canis lupus familiaris; conditions: route intravenous
Cavia porcellus [11] = species on record: Cavia porcellus; assay: Calcium antagonistic activity in isolated guinea pig Tenia coli specimens; (SE +/- 0.10); assay type: functional; conditions: read-out: pA2 (converted)
Canis familiaris [12] = assay: Coronary vasodilatory activity as increase in coronary flow was determined in dogs after 0.1 mg/kg i.v. administration of the compound; (SE +/- 22.2); assay type: functional, Canis lupus familiaris; conditions: route intravenous
Cavia porcellus [13] = species on record: Cavia porcellus; assay: Calcium antagonistic activity in isolated guinea pig Tenia coli specimens; (SE +/- 0.13); assay type: functional; conditions: read-out: pA2 (converted)
Canis familiaris [14] = assay: Ability to increase coronary blood flow after intra duodenal administration at 3 mg/kg in dog; (SE +/- 27); assay type: functional, Canis lupus familiaris; conditions: route intraduodenal
Canis familiaris [15] = assay: Coronary vasodilatory activity as increase in coronary flow was determined in dogs after 0.1 mg/kg i.v. administration of the compound; (SE +/- 5); assay type: functional, Canis lupus familiaris; conditions: route intravenous
Cavia porcellus [16] = species on record: Cavia porcellus; assay: Calcium antagonistic activity in isolated guinea pig Tenia coli specimens; (SE +/- 0.08); assay type: functional; conditions: read-out: pA2 (converted)
Canis familiaris [17] = assay: Ability to increase coronary blood flow after intra duodenal administration at 3 mg/kg in dog; (SE +/- 23); assay type: functional, Canis lupus familiaris, Blood/Heart; conditions: route intraduodenal
Cavia porcellus [18] = species on record: Cavia porcellus; assay: Calcium antagonistic activity in isolated guinea pig Tenia coli specimens; (SE +/- 0.06); assay type: functional; conditions: read-out: pA2 (converted)
Canis familiaris [19] = assay: Ability to increase coronary blood flow after intra duodenal administration at 3 mg/kg in dog; (SE +/- 38); assay type: functional, Canis lupus familiaris; conditions: route intraduodenal
Canis familiaris [20] = assay: Coronary vasodilatory activity as increase in coronary flow was determined in dogs after 0.1 mg/kg i.v. administration of the compound; (SE +/- 8.2); assay type: functional, Canis lupus familiaris; conditions: route intravenous
Canis familiaris [21] = assay: Coronary vasodilatory activity as increase in coronary flow was determined in dogs after 0.1 mg/kg i.v. administration of the compound; IA = Inactive; assay type: functional, organism-based; design: dose 0.1 mg/kg; conditions: Canis lupus familiaris; at 0.1 mg/kg
Canis familiaris [22] = assay: Coronary vasodilatory activity as increase in coronary flow was determined in dogs after 0.1 mg/kg i.v. administration of the compound; (SE +/- 13.1); assay type: functional, Canis lupus familiaris; conditions: route intravenous
Canis familiaris [23] = assay: Coronary vasodilatory activity as increase in coronary flow was determined in dogs after 0.1 mg/kg i.v. administration of the compound; (SE +/- 3.3); assay type: functional, Canis lupus familiaris; conditions: route intravenous
Canis familiaris [24] = assay: Ability to increase coronary blood flow after intra duodenal administration at 3 mg/kg in dog; (SE +/- 21); assay type: functional, Canis lupus familiaris; conditions: route intraduodenal
Cavia porcellus [25] = species on record: Cavia porcellus; assay: Calcium antagonistic activity in isolated guinea pig Tenia coli specimens; (SE +/- 0.11); assay type: functional; conditions: read-out: pA2 (converted)
Canis familiaris [26] = assay: Coronary vasodilatory activity as increase in coronary flow was determined in dogs after 0.1 mg/kg i.v. administration of the compound; (SE +/- 0.1); assay type: functional, Canis lupus familiaris; conditions: route intravenous
Canis familiaris [27] = assay: Coronary vasodilatory activity as increase in coronary flow was determined in dogs after 0.1 mg/kg i.v. administration of the compound; (SE +/- 9.9); assay type: functional, Canis lupus familiaris; conditions: route intravenous

Compound: CCOP(=O)(Cc1ccc(-c2nc3ccccc3s2)cc1)N1CCCCCC1 (stereo not drawn)
- Max increase (Canis familiaris [1]): 49.3%

Compound: CCOP(=O)(Cc1ccc(-c2nc3ccccc3s2)cc1)N1CCN(CC)C(=O)C1=O (stereo not drawn)
- Max increase (Canis familiaris [2]): 51.8%

Compound: CCOP(=O)(Cc1ccc(-c2nc3ccccc3s2)cc1)N1CCCC1=S (stereo not drawn)
- Max increase (Canis familiaris [3]): 64.9%

Compound: CCOP(=O)(Cc1ccc(-c2nc3ccccc3s2)cc1)NCCCl (stereo not drawn)
- Max increase (Canis familiaris [1]): 31.2%

Compound: CCOC(=O)Cc1ccc(-c2nc3ccccc3s2)cc1
- logP [4]: 3.2

Compound: CCOP(=O)(Cc1ccc(-c2nc3ccccc3s2)cc1)N1CCCCC1=S (stereo not drawn)
- Max increase (Canis familiaris [5]): 24.7%

Compound: CCOP(=O)(Cc1ccc(-c2nc3ccccc3s2)cc1)N1CCSC1=O (stereo not drawn)
- CBF-ID75 (Canis familiaris [6]): 0.0504 mg/kg
- Max increase (Canis familiaris [7]): 155.3%
- LD50 at 168 h [8]: > 1000 mg/kg

Compound: CCOP(=O)(Cc1ccc(-c2nc3ccccc3s2)cc1)N1CCSC1=S (stereo not drawn)
- Max increase (Canis familiaris [3]): 51.8%

Compound: CCOP(=O)(Cc1ccc(-c2nc3ccccc3s2)cc1)N1CCCC1=O (stereo not drawn)
- logP [4]: 3
- CBF-ID75 (Canis familiaris [6]): 0.0414 mg/kg
- Change in blood flow (Canis familiaris [9]): 104%
- Max increase (Canis familiaris [10]): 124.1%
- Kb (Cavia porcellus [11]): 29.5 nM
- LD50 at 168 h [8]: 2110 mg/kg

Compound: CCOP(=O)(Cc1ccc(-c2nc3ccccc3s2)cc1)N1CC=CC1 (stereo not drawn)
- Max increase (Canis familiaris [1]): 80.6%

Compound: CCOP(=O)(Cc1ccc(-c2nc3ccccc3s2)cc1)N1CCOC1=O (stereo not drawn)
- CBF-ID75 (Canis familiaris [6]): 0.0773 mg/kg
- Max increase (Canis familiaris [12]): 141.4%
- Kb (Cavia porcellus [13]): 25.7 nM
- LD50 at 168 h [8]: 671 mg/kg

Compound: CCOP(=O)(Cc1ccc(-c2nc3ccccc3s2)cc1)N1CCOCC1 (stereo not drawn)
- Max increase (Canis familiaris [1]): 69%

Compound: CCOP(=O)(Cc1ccc(-c2nc3ccccc3s2)cc1)OCC [FOSTEDIL]
- CBF-ID75 (Canis familiaris [6]): 0.116 mg/kg
- Change in blood flow (Canis familiaris [14]): 92%
- Max increase (Canis familiaris [15]): 82.2%
- Kb (Cavia porcellus [16]): 61.7 nM
- LD50 at 168 h [8]: 1190 mg/kg

Compound: COc1ccc([C@@H]2Sc3ccccc3N(CCN(C)C)C(=O)[C@@H]2OC(C)=O)cc1.Cl [DILTIAZEM HYDROCHLORIDE]
- CBF-ID75 (Canis familiaris [6]): 0.0771 mg/kg
- Change in blood flow (Canis familiaris [17]): 52%
- Kb (Cavia porcellus [18]): 50.1 nM
- LD50 at 168 h [8]: 508 mg/kg

Compound: CCOP(=O)(Cc1ccc(-c2nc3ccccc3s2)cc1)N1CCCCCC1=O (stereo not drawn)
- CBF-ID75 (Canis familiaris [6]): 0.055 mg/kg
- Change in blood flow (Canis familiaris [19]): 69%
- Max increase (Canis familiaris [10]): 102.8%
- Kb (Cavia porcellus [11]): 34.7 nM
- LD50 at 168 h [8]: > 1000 mg/kg

Compound: CCOP(=O)(Cc1ccc(-c2nc3ccccc3s2)cc1)NC(C)C (stereo not drawn)
- Max increase (Canis familiaris [1]): 73.2%

Compound: CCNP(=O)(Cc1ccc(-c2nc3ccccc3s2)cc1)OCC (stereo not drawn)
- Max increase (Canis familiaris [1]): 31.2%

Compound: Cc1ccc(-c2nc3ccccc3s2)cc1
- logP [4]: 3.7

Compound: CCOP(=O)(Cc1ccc(-c2nc3ccccc3s2)cc1)N1CCN(C)CC1 (stereo not drawn)
- Max increase (Canis familiaris [1]): 49.3%

Compound: CCOP(=O)(Cc1ccc(-c2nc3ccccc3s2)cc1)N1CCCCC1 (stereo not drawn)
- Max increase (Canis familiaris [20]): 81.3%

Compound: CCOP(=O)(Cc1ccc(-c2nc3ccccc3s2)cc1)OC (stereo not drawn)
- logP [4]: 3.5

Compound: CCOP(=O)(Cc1ccc(-c2nc3ccccc3s2)cc1)NCc1ccccc1 (stereo not drawn)
- Max increase (Canis familiaris [21]): inactive

Compound: CCOP(=O)(Cc1ccc(-c2nc3ccccc3s2)cc1)N1CCCC1 (stereo not drawn)
- Max increase (Canis familiaris [22]): 101.1%

Compound: CCOP(=O)(Cc1ccc(-c2nc3ccccc3s2)cc1)N1CCN(Cc2ccc(OC)c(OC)c2OC)CC1.O=C(O)/C=C/C(=O)O (stereo not drawn)
- Max increase (Canis familiaris [23]): 103.5%

Compound: CCOP(=O)(Cc1ccc(-c2nc3ccccc3s2)cc1)N1CCCCC1=O (stereo not drawn)
- CBF-ID75 (Canis familiaris [6]): 0.0552 mg/kg
- Change in blood flow (Canis familiaris [24]): 40%
- Max increase (Canis familiaris [3]): 101.9%
- Kb (Cavia porcellus [25]): 35.5 nM
- LD50 at 168 h [8]: > 1000 mg/kg

Compound: CCOP(=O)(Cc1ccc(-c2nc3ccccc3s2)cc1)NC1CC1 (stereo not drawn)
- Max increase (Canis familiaris [1]): 41.1%

Compound: CCOP(=O)(Cc1ccc(-c2nc3ccccc3s2)cc1)N(CC)CC (stereo not drawn)
- Max increase (Canis familiaris [26]): 79.7%

Compound: CCOP(=O)(Cc1ccc(-c2nc3ccccc3s2)cc1)N1CCCCCCC1=O (stereo not drawn)
- Max increase (Canis familiaris [27]): 70.7%
